Results taken from paper PMC5986797, “Laminin heparin-binding peptides bind to several growth factors and enhance diabetic wound healing” (Nature Communications, 2018).
“Also recorded” adds a separate entry of the source.

Key:
[1] = biological target: PDGF-BB; assay: SPR: laminin-521 against PDGF-BB; assay type: binding, human; conditions: laminin-521 immobilized (~2000 RU) on C1 chip, GF flown over, Langmuir fit
Description: (§1) SPR measurements were made with a Biacore 3000 SPR system (GE Healthcare). Laminin-521 or laminin LAMA3_2928–3150 was immobilized via amine coupling on a C1 chip (GE Healthcare) for ~2000 or ~1000 resonance units (RU), respectively, according to the manufacturer’s instructions. VEGF-A165, PDGF-BB, or PlGF-2 was flown at increasing concentrations in the running buffer (0.01 M HEPES, pH 7.4, 0.15 M NaCl, and 0.005% v/v surfactant P20) at 20 μL/min. The sensor chip was regenerated with 50 mM NaOH for every cycle. Specific bindings of GFs to laminin were calculated by comparison to a non-functionalized channel used as a reference. Experimental results were fitted with Langmuir binding kinetics using BIAevaluation software (GE Healthcare).

[2] = biological target: PlGF-2; assay: SPR: laminin-521 against PlGF-2; assay type: binding, human; conditions: laminin-521 immobilized (~2000 RU) on C1 chip, GF flown over, Langmuir fit
Description: as §1

[3] = test system: GF (VEGF-A165, PlGF-2, FGF-2) binding to laminin; assay: Inhibition of laminin–GF binding by heparin (ELISA); design: species or system human; conditions: 10 µM heparin; 10 µg/mL laminin coated; 1 μg/mL VEGF-A165, PlGF-2 or FGF-2; n = 4
Description: ELISA plates (med-binding) were coated with 10 μg/mL laminin isoforms (–111, –211, –221, –411, –421, –511, and –521) in PBS for 2 h at 37 °C. Then, wells were blocked with 2% BSA-containing PBS-T and further incubated with 1 μg/mL each of VEGF-A165, PlGF-2, or FGF-2 for 60 min at RT with 10 μM heparin. Next, the wells were incubated with biotinylated anti-VEGF (R&D Systems, Catalog No. DY293B, 1:60 dilution), anti-PlGF (R&D Systems, Catalog No. DY264, 1:180 dilution), or anti-FGF-2 (R&D Systems, Catalog No. DY233, 1:60 dilution) antibodies. The antibodies were detected by streptavidin-HRP (R&D Systems).

[4] = test system: GF; assay: ELISA: GF binding to laminin peptides, stated for the tested GFs together; design: species or system human; conditions: 10 µg/mL laminin peptide coated, 1 μg/mL GF, n = 4
[5] = ELISA: biotinylated heparin binding to laminin peptides; design: key to Interaction with Heparin: ++ indicates high affinities; + indicates medium/low affinities; conditions: for binding to heparin (ELISA): 10 µg/mL laminin peptide coated (legend; method 1 μg/mL), 10 µg/mL biotinylated heparin, vs BSA-coated wells, n = 4; for Interaction with Heparin: summary table
Description: (§2) ELISA tests were performed as described above. In brief, […] recombinant protein, laminin alpha 4 LG domain recombinant protein (R&D Systems), laminin alpha 5 LG domain recombinant protein (LD BioPharma), or laminin peptide (sequences are described in Supplementary Table 1, chemically synthesized by Genscript) in PBS for 2 h at 37 °C. A concentration of 1 μg/mL of BSA served as non-binding protein control. After blocking with 2% BSA PBS-0.05% Tween 20 (PBS-T) solution, 1 μg/mL of the recombinant human proteins (VEGF-A121, VEGF-A165, PlGF-1, PlGF-2, PDGF-BB, or FGF-2) or 10 μg/mL of biotinylated heparin (Sigma-Aldrich) were added. Bound GF was detected with biotinylated antibodies for human VEGF-A, PlGF, PDGF-BB (R&D Systems, Catalog No. DY220, 1:180 dilution), or FGF-2 (R&D Systems). The antibodies were detected by streptavidin-HRP (R&D Systems).

[6] = test system: recombinant human syndecan-1, syndecan-2, syndecan-3, and syndecan-4; assay: ELISA: syndecan binding to laminin peptides; design: key to Interaction with Syndecan: ++ indicates high affinities; + indicates medium/low affinities; conditions: for binding to syndecans 1–4 (ELISA): 10 µg/mL laminin peptide coated (legend; method 1 μg/mL), 1 μg/mL histidine-tagged syndecan, vs BSA-coated wells, n = 8; for Interaction with Syndecan: summary table
Description: ELISA tests were performed as described above. […] A concentration of 1 μg/mL of BSA served as non-binding protein control. After blocking with 2% BSA PBS-T solution, 1 μg/mL of the recombinant human syndecan-1, syndecan-2, syndecan-3, and syndecan-4 (all syndecan proteins are histidine-tagged; SinoBiological) were added. Bound GF was detected with anti-histidine tag antibody (BioLegend, Catalog No. 562504, 1:1000 dilution).

[7] = test system: GF; assay: ELISA: GF binding to laminin peptides, stated for the tested GFs together; design: species or system human; key: ++ indicates high affinities; + indicates medium/low affinities; conditions: summary table
Description: (§3) ELISA tests were performed as described above. In brief, ELISA plates were coated with 1 μg/mL of laminin alpha 3 LG domain recombinant protein, laminin alpha 4 LG domain recombinant protein (R&D Systems), laminin alpha 5 LG domain recombinant protein (LD BioPharma), or laminin peptide (sequences are described in Supplementary Table 1, chemically synthesized by Genscript) in PBS for 2 h at 37 °C. A concentration of 1 μg/mL of BSA served as non-binding protein control. After blocking with 2% BSA PBS-0.05% Tween 20 (PBS-T) solution, 1 μg/mL of the recombinant human proteins (VEGF-A121, VEGF-A165, PlGF-1, PlGF-2, PDGF-BB, or FGF-2) or 10 μg/mL of biotinylated heparin (Sigma-Aldrich) were added. Bound GF was detected with biotinylated antibodies for human VEGF-A, PlGF, PDGF-BB (R&D Systems, Catalog No. DY220, 1:180 dilution), or FGF-2 (R&D Systems). The antibodies were detected by streptavidin-HRP (R&D Systems).

[8] = test system: human lung fibroblasts; assay: Cell adhesion assay, fibroblasts; assay type: cell-based; design: key to Cell adhesion Fibroblast: ++ indicates high affinities; + indicates medium/low affinities; conditions: for Cell adhesion Fibroblast: summary table; for fibroblast attachment on peptide-coated surfaces: without EDTA, 1 μg/mL peptide coated, 3000 cells/well, 30 min, 37 °C, FGM-2, 1% FBS, CyQUANT, vs BSA, n = 10
Description: (§4) A total of 96-well plates (non-tissue culture treated, Greiner Bio-One) were pre-coated with 1 μg/mL with laminin HBD peptides in PBS for 2 h at 37 °C, followed by blocking with 2% BSA PBS for 1 h at RT. Cell adhesion assays were performed using human lung fibroblasts (Lonza) in FGM-2 medium (Lonza) or human umbilical vein endothelial cells (HUVEC; Lonza) in EGM-2 medium (Lonza) supplemented with 1% fetal bovine serum (FBS) and 100 µg/mL VEGF-A165, with or without 5 mM EDTA (Sigma-Aldrich). Cells were plated at 3000 cells/well on laminin peptide pre-coated plates and incubated for 30 min at 37 °C, 5% CO2. Then, the medium was removed, and wells were quickly washed three times with PBS. Cell numbers were quantified using a CyQUANT assay, according to the manufacturer’s instructions (Invitrogen). All cell lines were checked for mycoplasma contamination and used in passages from 5 to 8.

[9] = test system: HUVEC cells; assay: Migration assay (transwell); assay type: cell-based, human; conditions: 0.1 μM peptide, in the presence and absence of 30 ng/mL VEGF-A165; 6 h; n = 4
Description: A QCM 24-Well Colorimetric Cell Migration Assay Kit was used to perform migration assay. Both sides of inserts were coated with 0.1 μM of bovine collagen I (C4243, Sigma-Aldrich) for 1 h at 37 °C. Then, the inserts were washed with water, dried in a laminar flow cabinet, and disposed on 24-well cell culture plate covers. Solutions containing 30 ng/mL of VEGF-A165 preincubated with or without 0.1 μM of LAMA3_3043–3067 peptide in a medium (MCDB-131, 0.05% BSA) were added to the bottom side of the transwell (500 μL/well). Directly thereafter, HUVEC cells (Lonza) in a medium containing 0.05% BSA (300 μL/transwell, 4 × 10^4 cells/transwell) were added to the transwell upper parts. After 6 h, migrated cells were stained and absorbance at 560 nm was measured according to the manufacturer’s instructions.

[10] = test system: PlGF-2; assay: ELISA: PlGF-2 binding to laminin LG domain / laminin peptide; design: species or system human; conditions: 10 µg/mL laminin peptide coated (legend; method 1 μg/mL); 1 μg/mL GF; vs BSA-coated wells; n = 4
Description: as §3

[11] = test system: human umbilical vein endothelial cells (HUVEC); assay: Cell adhesion assay, HUVEC; assay type: cell-based; design: key to Cell adhesion HUVEC: ++ indicates high affinities; + indicates medium/low affinities
Description: as §4, with “Cell adhesion assays were performed using human lung fibroblasts (Lonza) in FGM-2 medium (Lonza) or human umbilical vein endothelial cells (HUVEC; Lonza) in EGM-2 medium (Lonza) supplemented with 1% fetal bovine serum (FBS) and 100 µg/mL VEGF-A165, with or without 5 mM EDTA (Sigma-Aldrich).” left out

[12] = test system: FGF-2; assay: ELISA: FGF-2 binding to laminin LG domain / laminin peptide; design: species or system human; conditions: 10 µg/mL laminin peptide coated (legend; method 1 μg/mL); 1 μg/mL GF; vs BSA-coated wells; n = 4
Description: as §3

[13] = test system: VEGF-A165; assay: ELISA: VEGF-A165 binding to laminin LG domain / laminin peptide; design: species or system human; conditions: 10 µg/mL laminin peptide coated (legend; method 1 μg/mL); 1 μg/mL GF; vs BSA-coated wells; n = 4
Description: as §2

[14] = test system: PDGF-BB; assay: ELISA: PDGF-BB binding to laminin LG domain / laminin peptide; design: species or system human; conditions: 10 µg/mL laminin peptide coated (legend; method 1 μg/mL); 1 μg/mL GF; vs BSA-coated wells; n = 4
Description: as §3

| Substance | binding to heparin (ELISA) [5] | binding to syndecans 1–4 (ELISA) [6] | Interaction with GF [7] | Interaction with Heparin [5] | binding to PlGF-2 (ELISA), peptides [10] | binding to FGF-2 (ELISA), peptides [12] | Interaction with Syndecan [6] | binding to VEGF-A165 (ELISA), peptides [13] | binding to PDGF-BB (ELISA), peptides [14] | further results |
| --- | --- | --- | --- | --- | --- | --- | --- | --- | --- | --- |
| laminin-521: recombinant human full-length laminin isoform (BioLamina) | – | – | – | – | – | – | – | – | – | Kd [1]: 24.2 nM; Kd [2]: 12.9 nM |
| heparin | – | – | – | – | – | – | – | – | – | inhibition of GF binding to laminin by excess heparin [3]: inhibited |
| TLPDVGLELEVR [LAMA5_3539–3550, chemically synthesized human laminin LAMA5 LG5 peptide, 12 aa] | did not show binding to heparin; also recorded: do not show heparin binding | did not show binding | + | – | – | – | – | – | – | binding to the tested GFs (ELISA) [4]: significantly bound to all tested GFs |
| RLVFALGTDGKKLRIKSKEKCNDGK [LAMA3_3043–3067, chemically synthesized human laminin LAMA3 LG4 HBD peptide, 25 aa] | bound to heparin | significant binding | ++ | ++ | bound | bound | ++ | bound | bound | Cell adhesion Fibroblast [8]: ++; fibroblast attachment on peptide-coated surfaces [8]: enhancement of fibroblast attachment; degree of migration of HUVEC cells, peptide [9]: did not increase the degree of cell migration; HUVEC attachment in the presence of EDTA ([11]; 5 mM EDTA, 1 μg/mL peptide coated, 3000 cells/well, 30 min, 37 °C, CyQUANT, n = 10): even in the presence of EDTA; Cell adhesion HUVEC ([11]; summary table): ++; HUVEC attachment on peptide-coated surfaces ([11]; without EDTA, 1 μg/mL peptide coated, 3000 cells/well, 30 min, 37 °C, 100 ng/mL VEGF-A165, 1% FBS, CyQUANT, n = 10): promoted HUVEC attachment |
| RQRSRPGRWHKVSVRWEKNR [LAMA5_3417–3436, chemically synthesized human laminin LAMA5 LG4 peptide, 20 aa] | bound to heparin | significant binding | ++ | ++ | bound | bound | ++ | bound | bound | Cell adhesion Fibroblast [8]: +; fibroblast attachment on peptide-coated surfaces [8]: enhancement of fibroblast attachment |
| ARKASRRSRQPARH [LAMA5_3312–3325, chemically synthesized human laminin LAMA5 linker peptide, 14 aa, subdomain of LAMA5_3300–3330] | did not bind to heparin | weak binding | – | – | – | – | + | – | – | binding to the tested GFs (ELISA) [4]: did not show particular binding to any tested GF |
| PLFLLHKKGKNLSKPKASQNKKGGKSK [LAMA4_1408–1434, chemically synthesized human laminin LAMA4 linker peptide, 27 aa] | bound to heparin | significant binding | ++ | ++ | bound | bound | ++ | bound | bound | – |
